Data as given in US20160375006A1, “USES OF PARALOG-SELECTIVE INHIBITORS OF GSK3 KINASES” (priority 2012, published 2016).
Like-named read-outs stand apart in the source and are kept apart here.

Legend:
EGFR(L861Q) = EGFR(L861Q) (Homo sapiens, UniProt P00533, L861Q)
Protocol: (§1) This was completed utilizing one of two assays depending on the kinase being examined.
(§2) A solution of IMAP binding reagent (IMAP Screening Express kit; Molecular Devices) (60 μL) was added to each well and incubated for 30 minutes.
(§3) A solution of termination buffer (QuickScout Screening assist MSA; Carna Biosciences) (60 μL) was added to each well. The entire reaction mixture was then applied to a LabChip3000 system (Caliper Life Science) and the product and substrate peptide peaks were separated and quantified.
(§4) The assay utilized was identical to that of the single point inhibitory activity determination (MSA) but run in dose response. […] A solution of termination buffer (QuickScout Screening assist MSA; Carna Biosciences) (60 μL) was added to each well. The entire reaction mixture was then applied to a LabChip3000 system (Caliper Life Science) and the product and substrate peptide peaks were separated and quantified.

PKACα = PKACα (Homo sapiens, UniProt P17612)
Protocol: as §1, §2, §3, §4

FAK = FAK (Homo sapiens, UniProt Q05397)
Protocol: as §1, §2, §3, §4

SIK = SIK (Homo sapiens, UniProt P57059)
Protocol: as §1, §2, §3, §4

FGFR4(N535K) = FGFR4(N535K) (Homo sapiens, UniProt P22455, N535K)
Protocol: as §1, §2, §3

QIK = QIK (Homo sapiens, UniProt Q9H0K1)
QIK, sequence (Q9H0K1 whole entry): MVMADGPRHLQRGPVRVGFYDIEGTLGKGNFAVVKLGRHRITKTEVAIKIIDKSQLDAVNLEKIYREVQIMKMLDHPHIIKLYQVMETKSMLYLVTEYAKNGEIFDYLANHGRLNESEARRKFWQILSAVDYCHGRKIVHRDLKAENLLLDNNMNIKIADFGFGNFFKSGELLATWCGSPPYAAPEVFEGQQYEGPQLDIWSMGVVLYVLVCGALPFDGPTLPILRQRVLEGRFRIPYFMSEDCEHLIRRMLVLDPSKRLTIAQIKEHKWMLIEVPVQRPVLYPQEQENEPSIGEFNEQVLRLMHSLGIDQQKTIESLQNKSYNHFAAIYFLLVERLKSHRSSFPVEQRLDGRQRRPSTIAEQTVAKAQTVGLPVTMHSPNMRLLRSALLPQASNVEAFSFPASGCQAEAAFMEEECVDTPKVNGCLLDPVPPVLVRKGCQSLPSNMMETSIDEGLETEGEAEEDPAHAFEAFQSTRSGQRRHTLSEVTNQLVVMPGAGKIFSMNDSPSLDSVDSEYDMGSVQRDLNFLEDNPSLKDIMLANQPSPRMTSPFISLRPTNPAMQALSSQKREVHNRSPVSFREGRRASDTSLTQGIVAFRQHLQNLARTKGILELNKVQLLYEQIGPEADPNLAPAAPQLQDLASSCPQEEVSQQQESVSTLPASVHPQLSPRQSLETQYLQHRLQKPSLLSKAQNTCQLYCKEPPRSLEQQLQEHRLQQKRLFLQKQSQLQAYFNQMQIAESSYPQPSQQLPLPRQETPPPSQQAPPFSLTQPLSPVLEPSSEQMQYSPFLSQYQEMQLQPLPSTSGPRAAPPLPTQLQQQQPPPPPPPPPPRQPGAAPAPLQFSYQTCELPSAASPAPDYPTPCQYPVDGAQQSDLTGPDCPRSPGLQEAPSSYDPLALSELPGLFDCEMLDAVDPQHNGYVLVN
Protocol: as §1, §2, §3, §4

LYNb = LYNb (Homo sapiens, UniProt P07948)
Protocol: as §1, §2, §3, §4

LATS2 = LATS2 (Homo sapiens, UniProt Q9NRM7)
Protocol: as §1, §2, §3, §4

[1] = tested on: pGSK3α/β, β-catenin, CRMP2 in SH-SY5Y cells; settings: SH-SY5Y cells, 1, 5, 10 and 30 μM, 24 hours
Protocol: The samples were incubated and gently rocked for 1 h before centrifuged at 12 000 g for 10 min. The supernatant total cell lysate was subject to subsequent western blot analysis. […] Membranes were incubated overnight with primary antibodies in a solution of Tris-buffered saline containing Tween 20 (TBST, Sigma) and 5% dry milk. Incubation of secondary antibodies was performed for 1 h at room temperature in a solution of 5% dry milk in TBST.

SLK = SLK (Homo sapiens, UniProt Q9H2G2)
Protocol: as §1, §2, §3, §4

DLK_Cascade = DLK_Cascade (Homo sapiens, UniProt Q12852)
Protocol: as §1, §2, §3, §4

CGK2 = CGK2 (Homo sapiens, UniProt Q13237)
CGK2, sequence (Q13237 whole entry): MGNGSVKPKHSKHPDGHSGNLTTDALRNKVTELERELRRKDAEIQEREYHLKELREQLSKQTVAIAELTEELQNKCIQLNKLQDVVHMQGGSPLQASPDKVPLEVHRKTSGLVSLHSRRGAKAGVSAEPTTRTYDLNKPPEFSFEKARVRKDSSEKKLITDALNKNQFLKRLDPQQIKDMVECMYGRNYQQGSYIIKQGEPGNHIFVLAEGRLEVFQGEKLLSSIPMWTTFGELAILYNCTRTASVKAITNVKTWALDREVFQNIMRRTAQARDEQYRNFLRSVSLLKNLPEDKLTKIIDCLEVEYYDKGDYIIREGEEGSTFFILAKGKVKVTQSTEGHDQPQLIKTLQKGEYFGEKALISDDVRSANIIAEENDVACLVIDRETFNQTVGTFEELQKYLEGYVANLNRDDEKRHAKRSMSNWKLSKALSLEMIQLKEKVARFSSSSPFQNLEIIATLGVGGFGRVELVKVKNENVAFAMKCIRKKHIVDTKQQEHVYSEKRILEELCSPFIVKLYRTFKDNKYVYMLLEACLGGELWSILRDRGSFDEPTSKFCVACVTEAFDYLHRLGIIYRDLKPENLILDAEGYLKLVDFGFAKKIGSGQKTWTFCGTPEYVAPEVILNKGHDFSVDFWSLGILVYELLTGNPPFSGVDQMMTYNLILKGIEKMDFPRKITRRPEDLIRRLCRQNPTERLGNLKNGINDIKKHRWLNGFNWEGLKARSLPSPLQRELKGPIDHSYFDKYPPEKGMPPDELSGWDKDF
Protocol: as §1, §2, §3, §4

AMPKα1/β1/γ1 = AMPKα1/β1/γ1 (Homo sapiens, UniProt Q13131)
Description: as §1
The assay utilized was identical to that of the single point inhibitory activity determination (MSA) but run in dose response.

[2] = tested on: audiogenic seizure phenotype; settings: Fmr1 KO mice, single dose 30 mg/kg i.p.
CLK3 = CLK3 (Homo sapiens, UniProt P49761)
BTK = BTK (Homo sapiens, UniProt Q06187)
Protocol: as §1, §2, §3, §4

JNK3 = JNK3 (Homo sapiens, UniProt P53779)
Protocol: as §1, §2, §3

MNK1 = MNK1 (Homo sapiens, UniProt Q9BUB5)
Protocol: as §1, §2, §3, §4

MARK4 = MARK4 (Homo sapiens, UniProt Q96L34)
Protocol: as §1, §2, §3, §4

RON = RON (Homo sapiens, UniProt Q04912)
Protocol: as §1, §2, §3, §4

CK1γ1 = CK1γ1 (Homo sapiens, UniProt Q9HCP0)
Protocol: as §1, §2, §3, §4

SYK = SYK (Homo sapiens, UniProt P43405)
Protocol: as §1, §2, §3, §4

GSK3β = GSK3β (Homo sapiens, UniProt P49841)
GSK3β, sequence (P49841 whole entry): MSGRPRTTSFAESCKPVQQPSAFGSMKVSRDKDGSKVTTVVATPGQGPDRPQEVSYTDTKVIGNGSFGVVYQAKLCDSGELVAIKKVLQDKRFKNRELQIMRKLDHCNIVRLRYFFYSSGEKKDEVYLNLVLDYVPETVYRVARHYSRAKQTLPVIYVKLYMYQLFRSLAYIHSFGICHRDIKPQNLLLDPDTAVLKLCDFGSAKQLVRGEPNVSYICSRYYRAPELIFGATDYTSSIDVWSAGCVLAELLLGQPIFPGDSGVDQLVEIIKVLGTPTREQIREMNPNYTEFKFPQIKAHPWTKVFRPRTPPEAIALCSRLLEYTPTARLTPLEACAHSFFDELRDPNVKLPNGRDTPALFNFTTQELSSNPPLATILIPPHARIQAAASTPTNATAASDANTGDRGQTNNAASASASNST
Protocol: as §1, §2, §3, §4

NuaK1 = NuaK1 (Homo sapiens, UniProt O60285)
NuaK1, sequence (O60285 whole entry): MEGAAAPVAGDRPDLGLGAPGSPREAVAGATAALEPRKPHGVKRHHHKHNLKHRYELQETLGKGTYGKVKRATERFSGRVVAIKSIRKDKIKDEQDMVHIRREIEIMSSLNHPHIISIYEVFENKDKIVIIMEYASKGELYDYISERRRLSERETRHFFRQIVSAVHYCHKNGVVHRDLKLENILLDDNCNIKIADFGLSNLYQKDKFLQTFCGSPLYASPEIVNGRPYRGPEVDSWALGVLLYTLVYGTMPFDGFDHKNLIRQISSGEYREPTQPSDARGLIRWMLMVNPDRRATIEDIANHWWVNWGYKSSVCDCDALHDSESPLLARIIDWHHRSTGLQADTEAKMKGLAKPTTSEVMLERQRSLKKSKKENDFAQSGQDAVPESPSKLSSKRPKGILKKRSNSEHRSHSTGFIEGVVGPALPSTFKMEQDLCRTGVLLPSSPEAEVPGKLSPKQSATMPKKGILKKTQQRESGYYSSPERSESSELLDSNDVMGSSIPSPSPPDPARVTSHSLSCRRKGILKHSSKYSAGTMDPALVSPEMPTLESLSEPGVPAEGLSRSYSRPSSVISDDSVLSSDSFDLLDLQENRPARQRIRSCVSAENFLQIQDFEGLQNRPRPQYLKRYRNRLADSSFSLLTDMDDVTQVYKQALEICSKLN
Protocol: as §1, §2, §3, §4

[3] = tested on: protein synthesis in hippocampal slices; settings: Fmr1 knockout mice hippocampal slices, 10 μM
Protocol: 500 um hippocampal slices are recovered in ACSF for 3 hours, followed by incubation in GSK3ai or vehicle for an hour, with Actinomycin D (to block transcription) for the last half hour of drug incubation. Slices are then transferred to new chambers containing ACSF with drug/vehicle and S35 (a radiolabeled Met/Cys) for 30 minutes to measure protein synthesis. Slices are then processed and read in a scintillation counter to determine the rate of protein synthesis.

NEK7 = NEK7 (Homo sapiens, UniProt Q8TDX7)
NEK7, sequence (Q8TDX7 whole entry): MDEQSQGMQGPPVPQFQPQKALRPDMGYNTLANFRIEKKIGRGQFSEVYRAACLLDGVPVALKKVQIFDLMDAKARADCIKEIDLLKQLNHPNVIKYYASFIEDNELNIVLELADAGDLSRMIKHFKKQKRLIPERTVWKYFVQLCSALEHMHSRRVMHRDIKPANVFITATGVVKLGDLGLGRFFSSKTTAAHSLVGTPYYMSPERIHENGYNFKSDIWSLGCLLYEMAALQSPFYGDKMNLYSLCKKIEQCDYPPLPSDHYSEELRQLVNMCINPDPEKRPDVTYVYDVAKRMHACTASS
Protocol: as §1, §2, §3, §4

LIMK1 = target: T1, LIMK1 (Homo sapiens, UniProt P53667); experiment: Carna kinase panel; format: biochemical
T1 construct: purchased Carna Biosciences
Protocol: as §1, §2, §3

BMPR1A = BMPR1A (Homo sapiens, UniProt P36894)
MET(M1250T) = MET(M1250T) (Homo sapiens, UniProt P08581, M1250T)
MET(D1228H) = MET(D1228H) (Homo sapiens, UniProt P08581, D1228H)
WEE1 = WEE1 (Homo sapiens, UniProt P30291)
LKB1 = LKB1 (Homo sapiens, UniProt Q15831)
GSK3α = GSK3α (Homo sapiens, UniProt P49840)
GSK3α, sequence (P49840 whole entry): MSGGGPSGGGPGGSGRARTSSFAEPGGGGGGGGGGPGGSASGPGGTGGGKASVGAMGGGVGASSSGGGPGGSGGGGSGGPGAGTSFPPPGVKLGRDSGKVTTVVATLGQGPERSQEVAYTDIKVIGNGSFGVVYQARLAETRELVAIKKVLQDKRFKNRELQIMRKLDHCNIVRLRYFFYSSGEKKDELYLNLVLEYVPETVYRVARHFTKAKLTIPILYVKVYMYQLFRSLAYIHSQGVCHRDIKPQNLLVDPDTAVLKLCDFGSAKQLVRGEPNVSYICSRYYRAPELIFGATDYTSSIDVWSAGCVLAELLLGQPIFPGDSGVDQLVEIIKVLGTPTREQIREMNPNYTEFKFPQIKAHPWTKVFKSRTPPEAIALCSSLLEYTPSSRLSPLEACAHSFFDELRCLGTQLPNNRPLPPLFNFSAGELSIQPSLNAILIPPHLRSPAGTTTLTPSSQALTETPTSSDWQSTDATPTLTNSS
Protocol: as §1, §2, §3, §4

PLK4 = PLK4 (Homo sapiens, UniProt O00444)
TTK = TTK (Homo sapiens, UniProt P33981)
KIT(D816E) = KIT(D816E) (Homo sapiens, UniProt P10721, D816E)

EGFR(L861Q), sequence (P00533 25-1210 L861Q): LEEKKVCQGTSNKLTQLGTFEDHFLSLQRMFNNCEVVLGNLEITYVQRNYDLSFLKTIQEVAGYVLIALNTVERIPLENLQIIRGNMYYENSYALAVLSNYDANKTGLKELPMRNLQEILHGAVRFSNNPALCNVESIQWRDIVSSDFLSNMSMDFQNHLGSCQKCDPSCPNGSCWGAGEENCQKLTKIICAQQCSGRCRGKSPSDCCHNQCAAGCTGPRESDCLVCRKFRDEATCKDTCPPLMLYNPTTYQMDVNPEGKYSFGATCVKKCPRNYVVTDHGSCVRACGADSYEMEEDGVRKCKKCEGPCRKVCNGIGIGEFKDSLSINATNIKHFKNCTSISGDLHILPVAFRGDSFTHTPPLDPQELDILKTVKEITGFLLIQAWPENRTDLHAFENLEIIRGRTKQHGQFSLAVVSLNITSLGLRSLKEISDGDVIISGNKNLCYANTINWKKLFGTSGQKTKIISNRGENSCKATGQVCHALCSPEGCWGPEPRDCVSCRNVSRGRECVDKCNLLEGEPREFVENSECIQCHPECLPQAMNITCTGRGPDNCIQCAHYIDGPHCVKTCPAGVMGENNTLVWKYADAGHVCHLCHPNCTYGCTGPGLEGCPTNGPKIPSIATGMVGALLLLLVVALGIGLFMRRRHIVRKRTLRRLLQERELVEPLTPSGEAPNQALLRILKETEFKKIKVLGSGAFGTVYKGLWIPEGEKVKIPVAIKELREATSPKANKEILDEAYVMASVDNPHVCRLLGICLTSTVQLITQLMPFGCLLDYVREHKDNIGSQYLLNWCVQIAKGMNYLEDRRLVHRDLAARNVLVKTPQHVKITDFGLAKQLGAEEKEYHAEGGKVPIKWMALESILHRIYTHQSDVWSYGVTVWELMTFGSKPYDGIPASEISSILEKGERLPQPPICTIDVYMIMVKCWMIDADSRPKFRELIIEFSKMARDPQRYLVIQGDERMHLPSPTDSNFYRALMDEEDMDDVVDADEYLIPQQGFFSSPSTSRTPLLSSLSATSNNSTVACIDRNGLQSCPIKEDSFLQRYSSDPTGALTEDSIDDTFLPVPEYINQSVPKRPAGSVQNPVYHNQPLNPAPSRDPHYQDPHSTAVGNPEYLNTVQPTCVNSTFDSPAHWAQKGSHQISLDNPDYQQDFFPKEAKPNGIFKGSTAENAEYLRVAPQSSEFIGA

Compound: CC[C@@]1(c2ccccc2)C2=C(CC(C)(C)CC2=O)Nc2n[nH]cc21 [BRD0705]
- % Inhibition at 10 μM (EGFR(L861Q)): −1.8%
- % Inhibition at 10 μM (PKACα): 3.4%
- % Inhibition at 10 μM (FAK): −3.9%
- % Inhibition at 10 μM (SIK): −4.8%
- % Inhibition at 10 μM (FGFR4(N535K)): 22.1%
- % Inhibition at 10 μM (QIK): −6.4%
- % Inhibition at 10 μM (LYNb): 2.2%
- % Inhibition at 10 μM (LATS2): −11.9%
- pGSK3αY279 level (Western blot) [1]: dose dependent decrease
- pGSK3βY216 and β-catenin levels (Western blot) [1]: without effecting
- % Inhibition at 10 μM (SLK): −10.7%
- % Inhibition at 10 μM (DLK_Cascade): −1.1%
- % Inhibition at 10 μM (CGK2): −7.3%
- % Inhibition at 10 μM (AMPKα1/β1/γ1): −4.1%
- Audiogenic seizure phenotype [2]: reduces audiogenic seizures
- % Inhibition at 10 μM (CLK3): −1.5%
- % Inhibition at 10 μM (BTK): 2.1%
- % Inhibition at 10 μM (JNK3): −3.4%
- % Inhibition at 10 μM (MNK1): −5.2%
- % Inhibition at 10 μM (MARK4): 2.0%
- % Inhibition at 10 μM (RON): −3.8%
- % Inhibition at 10 μM (CK1γ1): −3.4%
- % Inhibition at 10 μM (SYK): 0.6%
- % Inhibition at 10 μM (GSK3β): 96.5%
- IC50 (GSK3β; read-out: IC50 GSK3β): 488 nM
- % Inhibition at 10 μM (NuaK1): −2.0%
- Excess protein synthesis [3]: correction of excess protein synthesis
- % Inhibition at 10 μM (NEK7): −1.0%

Compound: CC(C)(C)Cc1[nH]nc2c1[C@](C)(c1ccccc1)C1=C(CC(C)(C)CC1=O)N2 [BRD3731]
- % Inhibition 10 μM (EGFR(L861Q); 10 μM): 2.7%
- % Inhibition 10 μM (LIMK1): 7.5%
- % Inhibition 10 μM (PKACα; 10 μM): 17.1%
- % Inhibition 10 μM (BMPR1A): −4.4%
- % Inhibition 10 μM (FAK; 10 μM): 2.3%
- % Inhibition 10 μM (SIK; 10 μM): 8.2%
- % Inhibition 10 μM (MET(M1250T)): 0.8%
- % Inhibition 10 μM (QIK; 10 μM): −4.1%
- % Inhibition 10 μM (LYNb; 10 μM): 2.9%
- % Inhibition 10 μM (LATS2; 10 μM): −3.0%
- % Inhibition 10 μM (MET(D1228H)): 0.0%
- % Inhibition 10 μM (SLK; 10 μM): −1.8%
- % Inhibition 10 μM (DLK_Cascade; 10 μM): 0.9%
- % Inhibition 10 μM (CGK2; 10 μM): 4.4%
- % Inhibition 10 μM (WEE1): −9.1%
- % Inhibition 10 μM (AMPKα1/β1/γ1; 10 μM): 11.2%
- % Inhibition 10 μM (CLK3; 10 μM): 4.0%
- % Inhibition 10 μM (BTK; 10 μM): 0.3%
- % Inhibition 10 μM (JNK3; 10 μM): −2.6%
- % Inhibition 10 μM (LKB1): 3.4%
- % Inhibition 10 μM (MNK1; 10 μM): −4.1%
- % Inhibition 10 μM (MARK4; 10 μM): 22.7%
- % Inhibition 10 μM (RON; 10 μM): 2.3%
- % Inhibition 10 μM (GSK3α): 96.8%
- Fold Selectivity (GSK3α): 7.8 fold
- IC50 (GSK3α): 211 nM
- % Inhibition 10 μM (CK1γ1; 10 μM): 1.2%
- % Inhibition 10 μM (PLK4): 14.3%
- % Inhibition 10 μM (SYK; 10 μM): −11.0%
- % Inhibition 10 μM (GSK3β): 100.7%
- IC50 (GSK3β): 27 nM
- % Inhibition 10 μM (TTK): 5.4%
- % Inhibition 10 μM (NuaK1; 10 μM): −0.9%
- % Inhibition 10 μM (KIT(D816E)): 3.9%
- % Inhibition 10 μM (NEK7; 10 μM): −3.2%
